According to patent US20230293530A1, “AGENTS FOR SENSITIZING SOLID TUMORS TO TREATMENT” (Yeda Research and Development Co. Ltd., priority 2020, published 2023):

What was measured:
4T1 cells = assay: Cell viability by crystal violet staining, 4T1; format: cell-based, murine; settings: 300 µM mizoribine, 24 h
Method: (§1) A) Purine/pyrimidine ratio is increased upon nutrient deprivation in […] colon cancer cells. MC38 cells were grown in either regular medium or in medium without glucose for 24 h. Nucleotide levels were measured by LC-MS. Purine/pyrimidine ratio was calculated by dividing (AMP+GMP) AUC by (UMP+CMP) AUC. B) 4T1 cells with and without shASS1 were grown in glucose free medium either supplemented or not with 10 mM L-Name for 48 hrs. Nucleotide levels were measured by LC-MS. Purine/pyrimidine ratio was calculated by dividing the sum levels of (AMP+GMP) by the sum levels of (UMP+CMP+TMP). […] MC38 cells were grown either with or without 300 µM mizoribine for 24 h. Nucleotide levels were measured by LC-MS. […] 4T1 (left panel) and MC38 cells (right panel) were grown for 24 h with or without 300 µM mizoribine. Cell viability was measured by crystal violet staining. Each experiment was conducted with biological and technical replicates and repeated at least three times. All error bars represent SER. * P<0.05, ** denotes P<0.01, ***P<0.001.

MC38 cells = assay: Cell viability by crystal violet staining, MC38; format: cell-based, mouse; settings: 300 µM mizoribine, 24 h
Method: as §1

[1] = tested on: NSCLC PDX explants with autologous CD8+ T cells; assay: Co-culture of NSCLC PDX tumor explants with autologous CD8+ T cells, IFNγ ELISA; format: cell-based, human
Text: Two patients bearing metastatic non-small cell lung cancer (NSCLC) were included in this study. Blood samples and fresh tumor tissue samples were procured just after their biopsy with patient consent and with Helsinki approval (number 0093-19-SOR). The samples were placed in serum free DMEM (Gibco) media then processed for implantation in NSG (NOD scid gamma) mice. Tumor tissue samples were implanted subcutaneously in dorsal flanks of the mice to form patient-derived xenografts (PDXs). All animal experiments were done under Institutional Animal Care and Use Committee (IACUC) of Ben-Gurion University of the Negev (BGU’s IACUC) according to specified protocols aiming to ensure animal welfare and reduce su □ ering. The Animal ethical clearance protocol number used for this research is IL-80-12-2015. After isolation of peripheral blood mononuclear cells (PBMCs) from the peripheral blood of the patients according to standard protocol using Lymphocyte Separation Medium (LSM, MP Biomedicals, SKU 0850494-CF), CD8^+ T cells were isolated from PBMCs by employing human CD8 Microbeads (Miltenyi Biotec, 130-045-201), LS column (Miltenyi Biotec, 130-042-401) and MidiMACS Separator (130-042-302) following manufacturer’s protocol. For culturing and maintenance of CD8 T cells, RPMI containing 10% human male AB plasma (Sigma, H4522), 1 mM sodium pyruvate, 2 mM L-glutamine, 0.1 mM MEM non-essential amino acids, 1% penicillin/streptomycin, 10 mM HEPES (Life Technologies), 200 IU/mL recombinant human IL-2 (PeproTech) and 50 ng/mL anti-human CD3 Antibody (BioLegend, 317302) were used for the first 48 hrs followed by culturing and passaging in media containing 200 IU/mL of IL-2.
2×2×2 mm^3 tumor tissue explants were cut from PDXs with a specific tissue cutter and seeded singly in 48 well flat-bottom plates and incubated with either mizoribine (0.3 mM) in 400 µl of media or with only media for 10 hrs. Then, explants were washed once and transferred into new 48 well flat-bottom plates containing 2×10^5 CD8+T cells/well along with nivolumab (Opdivo, 20 µg/mL), pembrolizumab (Keytruda, 20 µg/mL) or mock solventin fresh 400 µl RPMI containing 20 IU/ml ofIL-2. After 18 hours of incubation, the supernatant was collected from the wells and then assayed for standard IFNγ ELISA assay (ELISA MAX, Biolegend) according to manufacturer’s instructions.
Two patients bearing metastatic non-small cell lung cancer (NSCLC) were included in this study. Blood samples and fresh tumor tissue samples were procured just after their biopsy with patient consent and with Helsinki approval (number 0093-19-SOR). The samples were placed in serum free DMEM (Gibco) media then processed for implantation in NSG (NOD scid gamma) mice (NOD.Cg-Prkdcscid Il2rgtm1Wjl, The Jackson Laboratory). Tumor tissue samples were implanted subcutaneously in dorsal flanks of the 7-9 weeks old male mice to form patient-derived xenografts (PDXs).
After isolation of peripheral blood mononuclear cells (PBMCs) from the peripheral blood of the patients according to standard protocol using Lymphocyte Separation Medium (LSM, MP Biomedicals, SKU 0850494-CF), CD8^+ T cells were isolated from PBMCs by employing human CD8 Microbeads (Miltenyi Biotec, 130-045-201), LS column (Miltenyi Biotec, 130-042-401) and MidiMACS Separator (130-042-302) following manufacturer’s protocol. For culturing and maintenance of CD8 T cells, RPMI containing 10% human male AB plasma (Sigma, H4522), 1 mM sodium pyruvate, 2 mM L-glutamine, 0.1 mM MEM non-essential amino acids, 1% penicillin/streptomycin, 10 mM HEPES (Life Technologies), 200 IU/mL recombinant human IL-2 (PeproTech) and 50 ng/mL anti-human CD3 Antibody (BioLegend, 317302) were used for the first 48 hrs followed by culturing and passaging in media containing 200 IU/mL of IL-2.
PDXs from patients with lung cancer non responsive to anti-PD1 were exposed to no treatment, to mizoribine, or to either EDHB (left panel) or Viagra (right panel). […]

NC(=O)c1ncn([C@@H]2O[C@H](CO)[C@@H](O)[C@H]2O)c1O [Mizoribine, mizoribine]
cancer cell proliferation (cell viability, crystal violet) (4T1 cells): restricts ASS1-overexpressing cancer cell proliferation | cancer cell proliferation (cell viability, crystal violet) (MC38 cells): restricts ASS1-overexpressing cancer cell proliferation | human IFNγ in supernatant, explant alone ([1]; PDX explant alone treated with mizoribine 0.3 mM, no T cells): did not detect human IFNγ | IFNγ secretion by autologous CD8+ T cells, anti-PD1 plus mizoribine-treated explants ([1]; explants pre-treated with mizoribine 0.3 mM 10 hrs, nivolumab or pembrolizumab 20 µg/mL, 18 hours): significant elevation in secretion of IFN-γ | human IFNγ levels, explant plus autologous CD8+ T cells, no anti-PD1 ([1]; mizoribine-treated explants with autologous CD8+T cells): did not induce detectable IFNγ levels
